Where two headings read alike, the source gives them in different places.
Key:
human TLR7 = target: T1, human TLR7 (Homo sapiens, UniProt Q9NYK1); assay: HEK-Blue TLR7 reporter assay (SEAP reporter); type: cell-based; settings: HEK-Blue TLR7 cells, 18 h treatment, SEAP readout; average if more than one assay; read-out: TLR7 Agonism HEK Blue ™ Assay EC50
T1 construct: host or cells: HEK-Blue TLR7 cells (engineered human embryonic kidney cells)
T1 sequence (Q9NYK1 27-1049): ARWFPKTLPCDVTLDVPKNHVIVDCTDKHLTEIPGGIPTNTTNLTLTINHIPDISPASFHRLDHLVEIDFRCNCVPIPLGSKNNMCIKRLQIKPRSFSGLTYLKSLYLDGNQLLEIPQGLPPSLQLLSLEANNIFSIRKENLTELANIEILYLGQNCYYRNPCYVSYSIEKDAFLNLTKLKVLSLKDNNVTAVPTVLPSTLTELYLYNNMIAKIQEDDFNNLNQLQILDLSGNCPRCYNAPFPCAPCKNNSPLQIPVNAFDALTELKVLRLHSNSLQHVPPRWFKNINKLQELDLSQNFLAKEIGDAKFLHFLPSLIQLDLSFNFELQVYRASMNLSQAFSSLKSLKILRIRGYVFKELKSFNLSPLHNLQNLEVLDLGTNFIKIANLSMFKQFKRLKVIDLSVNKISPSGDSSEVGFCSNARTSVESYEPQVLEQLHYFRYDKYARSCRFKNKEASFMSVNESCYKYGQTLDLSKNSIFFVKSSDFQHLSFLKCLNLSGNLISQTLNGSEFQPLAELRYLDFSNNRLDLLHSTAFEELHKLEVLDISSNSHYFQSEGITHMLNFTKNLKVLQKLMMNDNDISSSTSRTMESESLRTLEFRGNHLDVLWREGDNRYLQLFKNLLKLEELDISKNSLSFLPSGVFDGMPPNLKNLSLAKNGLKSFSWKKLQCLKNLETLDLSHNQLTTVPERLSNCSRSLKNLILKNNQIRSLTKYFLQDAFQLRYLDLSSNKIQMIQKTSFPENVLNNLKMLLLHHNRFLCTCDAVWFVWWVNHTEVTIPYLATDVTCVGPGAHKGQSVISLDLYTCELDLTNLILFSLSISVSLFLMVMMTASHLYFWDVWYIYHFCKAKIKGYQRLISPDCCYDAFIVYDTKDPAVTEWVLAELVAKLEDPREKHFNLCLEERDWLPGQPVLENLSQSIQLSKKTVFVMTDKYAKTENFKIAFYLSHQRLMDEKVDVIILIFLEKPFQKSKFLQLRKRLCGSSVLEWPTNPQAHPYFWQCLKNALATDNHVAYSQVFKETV
Source text: Table A presents biological activity data for compounds disclosed herein. One set of data relates TLR7 agonism activity using the HEK-Blue™ TLR7 reporter assay, as described in Example 11 hereinbelow. Another set of data relates to the induction of interleukin 6 (IL-6), a cytokine that plays an important role in the TLR7 pathway. […] In some instances, more that one TLR7 agonism or IL-6 induction assay was made; if so, the reported value is an average.
This example describes a method for assaying TLR7 agonist activity of the compounds disclosed in this specification.
HEK-Blue™ TLR7 cells were added to each well of a 384-well tissue-culture plate (15,000 cells per well) and incubated 16-18 h at 37° C., 5% CO2. Compounds (100 nl) were dispensed into wells containing the HEK-Blue™ TLR cells and the treated cells were incubated at 37° C., 5% CO2. After 18 h treatment ten microliters of freshly-prepared Quanti-Blue™ reagent (Invivogen) was added to each well, incubated for 30 min (37° C., 5% CO2) and SEAP levels measured using an Envision plate reader (OD=620 nm). […] EC50's can be determined with software such as Graphpad Prism™.

interleukin 6 (IL-6) = assay: Interleukin 6 induction assay in human whole blood (AlphaLISA); type: cell-based; settings: 20 h at 37° C., 100% set by resiquimod reference at 10 μM, average if more than one assay, read-out: IL-6 Induction EC50 (nM) (normalized 10 μM)
Source text: Table A presents biological activity data for compounds disclosed herein. One set of data relates TLR7 agonism activity using the HEK-Blue™ TLR7 reporter assay, as described in Example 11 hereinbelow. Another set of data relates to the induction of interleukin 6 (IL-6), a cytokine that plays an important role in the TLR7 pathway. […] In some instances, more that one TLR7 agonism or IL-6 induction assay was made; if so, the reported value is an average. This example describes a method for assaying interleukin 6 (IL 6) induction by compounds disclosed in this specification. Compounds suspended in DMSO were transferred to individual wells of a Matrix Technologies clear, V-bottom 384-well plate using ECHO acoustic liquid handling technology (25 nL per well). Human whole-blood samples (25 uL) were added to each well using a CyBio FeliX liquid handling instrument and the plate was shaken on a plate shaker for three minutes before incubating the reaction mixtures at 37° C. for 20 h. Basel RPMI 1640 medium (supplemented with L-glutamine) was then added to each well (25 uL per well) prior to liberating plasma from each sample by centrifugation (450×g, 5 min, ambient temperature). Treated plasma samples (3 uL) were subsequently transferred to individual wells of a white, shallow, 384-well ProxiPlate (PerkinElmer) using the FeliX liquid handling instrument and their IL6 levels were measured using AlphaLISA technology as described by the manufacturer (PerkinElmer).

Row | Structure (SMILES) | EC50 (human TLR7) | EC50 (interleukin 6 (IL-6); Homo sapiens, 20 h) | EC50 (interleukin 6 (IL-6))
1 | Nc1nc2nc3c1nc(O)n3Cc1ccc(Oc3ccc(CNC4CC4)cc3)c(c1)CCCCCO2 [IIa-11] | 6.6 nM | 5.5 nM | 
2 | Nc1nc2nc3c1nc(O)n3Cc1ccc(Oc3ccc(CNC4CC4)cc3)c(c1)C/C=C\CCO2 [IIa-04] | 0.91 nM | 4.4 nM | 
3 | Nc1nc2nc3c1nc(O)n3Cc1ccc(-c3cnn(CCNC4CCC4)c3)c(c1)CCCCCO2 [IIb-08] | 1.7 nM | 6.2 nM | 
4 | Nc1nc2nc3c1nc(O)n3Cc1ccc(-c3ccc(CNC4COC4)cc3)c(c1)C/C=C\CCO2 [IIb-33] | 0.42 nM |  | 
5 | Nc1nc2nc3c1nc(O)n3Cc1ccc(Oc3ccc(CNC4CC4)cc3)c(c1)C/C=C/CCO2 [IIa-02] | 4 nM | 5.2 nM | 
6 | Nc1nc2nc3c1nc(O)n3Cc1ccc(-c3cnn(CCNC4CC4)c3)c(c1)C/C=C/CCO2 [IIb-01] | 0.67 nM | 42 nM | 
7 | Nc1nc2nc3c1nc(O)n3Cc1ccc(-c3cccc(C(=O)NC4CNC4)c3)c(c1)C/C=C\CCO2 [IIb-29] | 3.2 nM | 24 nM | 
8 | Nc1nc2nc3c1nc(O)n3Cc1ccc(-c3ccc(CNC4CC(O)C4)cc3)c(c1)C/C=C/CCO2 (stereo not shown) [IIb-24] | 0.68 nM |  | 2.7 nM
9 | Nc1nc2nc3c1nc(O)n3Cc1cc(cc(Oc3ccc(CNC4CCC4)cc3)c1)C/C=C/CCO2 [IIa-17] | 8.5 nM | 44 nM | 
10 | CC1(NCc2ccc(-c3ccc4cc3C/C=C/CCOc3nc(N)c5nc(O)n(c5n3)C4)cc2)CCC1 [IIb-26] | 0.26 nM | 1 nM | 
11 | COCCNCc1ccc(Oc2ccc3cc2C/C=C/CCOc2nc(N)c4nc(O)n(c4n2)C3)cc1 [IIa-09] | 2.2 nM | 1.9 nM | 
12 | Nc1nc2nc3c1nc(O)n3Cc1ccc(-c3ccc(CNC4CCC4)cc3)c(c1)CCCCCCO2 [IIb-18] | 3.8 nM | 34 nM | 
13 | Nc1nc2nc3c1nc(O)n3Cc1ccc(OCC(=O)NC3CNC3)c(c1)C/C=C\CCO2 [IIe-01] | 5.3 nM | 40 nM | 
14 | Nc1nc2nc3c1nc(O)n3Cc1cc(cc(Oc3ccc(CNC4CCC4)cc3)c1)C/C=C\CCO2 [IIa-13] | 0.94 nM | 13 nM | 
15 | Nc1nc2nc3c1nc(O)n3Cc1cc(cc(Oc3ccc(CNC4CC4)cc3)c1)C/C=C/CCO2 [IIa-18] | 10 nM | 32 nM | 
16 | Nc1nc2nc3c1nc(O)n3Cc1ccc(Oc3ccc(C(=O)NC4CNC4)cc3)c(c1)C/C=C\CCO2 [IIa-19] | 25 nM | 95 nM | 
17 | Nc1nc2nc3c1nc(O)n3Cc1ccc(OC3CCNCC3)c(c1)C/C=C/CCO2 [IIc-01] | 3.7 nM | 5 nM | 
18 | Nc1nc2nc3c1nc(O)n3Cc1ccc(Oc3cccc(CNC4CC4)c3)c(c1)CCCCCO2 [IIa-12] | 29 nM | 110 nM | 
19 | Nc1nc2nc3c1nc(O)n3Cc1ccc(-c3cnn(CC(=O)NC4CNC4)c3)c(c1)C/C=C\CCO2 [IIb-39] | 1.6 nM |  | 
20 | Nc1nc2nc3c1nc(O)n3Cc1ccc(-c3cnn(CC(=O)NC4CNC4)c3)c(c1)C/C=C/CCO2 [IIb-38] | 22 nM | 1000 nM | 
21 | Nc1nc2nc3c1nc(O)n3Cc1ccc(-c3cnn(CCNC4CC4)c3)c(c1)CCCCCO2 [IIb-03] | 2.9 nM | 65 nM | 
22 | Nc1nc2nc3c1nc(O)n3Cc1ccc(Nc3cccc(CNC4CCC4)c3)c(c1)C/C=C/CCO2 [IId-01] | 15 nM | 60 nM | 

Row | Structure (SMILES) | EC50 (human TLR7) | EC50 (interleukin 6 (IL-6); Homo sapiens, 20 h) | EC50 (interleukin 6 (IL-6))
23 | Nc1nc2nc3c1nc(O)n3Cc1ccc(-c3ccc(CNC4CCC4)cc3)c(c1)C/C=C/CCCO2 [IIb-16] | 1.2 nM | 3.6 nM | 
24 | Nc1nc2nc3c1nc(O)n3Cc1ccc(-c3cnn(CCNC4CCC4)c3)c(c1)C/C=C\CCO2 [IIb-09] | 0.35 nM | 2.1 nM | 
25 | Nc1nc2nc3c1nc(O)n3Cc1ccc(-c3ccc(CNC4CC(O)C4)cc3)c(c1)C/C=C\CCO2 (stereo not shown) [IIb-22] | 0.42 nM | 1.4 nM | 
26 | Nc1nc2nc3c1nc(O)n3Cc1ccc(-c3cn[nH]c3)c(c1)C/C=C/CCO2 [IIb-06] | 21 nM | 570 nM | 
27 | Nc1nc2nc3c1nc(O)n3Cc1ccc(-c3ccc(CNC4CCC4)cc3)c(c1)C/C=C/CCO2 [IIb-10] | 1.1 nM | 0.41 nM | 
28 | Nc1nc2nc3c1nc(O)n3Cc1ccc(Oc3ccc(CNC4CCC4)cc3)c(c1)C/C=C\CCO2 [IIa-06] | 1 nM | 2.2 nM | 
29 | Nc1nc2nc3c1nc(O)n3Cc1ccc(-c3cnc(CNC4CCC4)s3)c(c1)C/C=C/CCO2 [IIb-13] | 0.24 nM | 4.3 nM | 
30 | Nc1nc2nc3c1nc(O)n3Cc1ccc(-c3cc(CNC4CCC4)[nH]n3)c(c1)C/C=C/CCO2 [IIb-14] | 3 nM | 5.3 nM | 
31 | Nc1nc2nc3c1nc(O)n3Cc1ccc(O)c(c1)C/C=C/CCO2 [Compound B3, reference compound] | 68 nM | 400 nM | 
32 | Nc1nc2nc3c1nc(O)n3Cc1ccc(-c3ccc(CNC4CC4)nc3)c(c1)C/C=C/CCO2 [IIb-04] | 0.28 nM | 10 nM | 
33 | Nc1nc2nc3c1nc(O)n3Cc1ccc(-c3ccc(CNC4CCC4)cc3)c(c1)OCCCCO2 [IIb-19] | 1 nM | 1.4 nM | 
34 | Nc1nc2nc3c1nc(O)n3Cc1ccc(-c3ccc(CNC4CCC4)cc3)c(c1)OCCCO2 [IIb-20] | 56 nM | 150 nM | 
35 | Nc1nc2nc3c1nc(O)n3Cc1ccc(Oc3cccc(C(=O)NC4CNC4)c3)c(c1)C/C=C\CCO2 [IIa-20] | 15 nM | 91 nM | 
36 | Nc1nc2nc3c1nc(O)n3Cc1ccc(-c3cc(CNC4CCC4)[nH]n3)c(c1)C/C=C\CCO2 [IIb-15] | 0.65 nM | 4.7 nM | 
37 | Nc1nc2nc3c1nc(O)n3Cc1ccc(-c3cccc(C(=O)NC4CNC4)c3)c(c1)C/C=C/CCO2 [IIb-31] | 6.8 nM | 28 nM | 
38 | Nc1nc2nc3c1nc(O)n3Cc1cccc(c1)C/C=C\CCO2 [Compound B2, reference compound] | 33 nM |  | 
39 | CCOCc1nc2c(N)nc3ccccc3c2n1CC(C)(C)O [Resiquimod, resiquimod, reference compound] |  | 350 nM | 
40 | Nc1nc2nc3c1nc(O)n3Cc1cccc(c1)C/C=C/CCO2 [Compound B1, reference compound] | 210 nM |  | 
41 | Nc1nc2nc3c1nc(O)n3Cc1ccc(O)c(c1)CCCCCO2 [Compound B5, reference compound] | 580 nM |  | 
42 | Nc1nc2nc3c1nc(O)n3Cc1ccc(Oc3ccc(CO)cc3)c(c1)C/C=C/CCO2 [IIa-01] | 51 nM |  | 
43 | Nc1nc2nc3c1nc(O)n3Cc1ccc(-c3cnn(C4CNC4)c3)c(c1)C/C=C/CCO2 [IIb-35] | 1.5 nM |  | 
44 | Nc1nc2nc3c1nc(O)n3Cc1ccc(-c3cnn(C4CCNCC4)c3)c(c1)C/C=C/CCO2 [IIb-36] | 1 nM |  | 

— patent US11485741B2, “Macrocyclic toll-like receptor 7 (TLR7) agonists” (BRISTOL-MYERS SQUIBB COMPANY, priority 2018, dated 2022)
